ChEMBL document CHEMBL1201862, “PubChem BioAssay data set” (2004)
The source made the active and inactive calls.

What was measured:
[1] = inhibitors of Vif binding to APOBEC3G peptide, primary screen, biochemical, TR-FRET, GST-Vif 1-94, biotin-A3G peptide, dose response retest (AID 1117319); assay type: functional;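 note: TR-FRET signal of purified GST-Vif binding a biotinylated A3G peptide; inhibitors lower the FRET signal by blocking Vif and A3G binding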
[2] = A375 melanoma cell cytotoxicity, dose response, counter-screen for MITF inhibitor project, CellTiter-Glo luminescence, dry powder, set 7 (AID 624490); assay type: functional, cell-based; conditions: A-375
[3] = SK-MEL-5 parental line viability, dose response, MITF inhibitor project, cell-based, CellTiter-Glo, dry powder, set 6 (AID 624429); assay type: functional
[4] = MITF Orthogonal Assay: SK-MEL-5 CTG Assay Measured in Cell-Based System Using Plate Reader - 2084-02_Inhibitor_Dose_DryPowder_Activity_Set5.; assay type: functional
[5] = MITF Measured in Cell-Based System Using Plate Reader - 2084-01_Inhibitor_Dose_DryPowder_Activity_Set6.; assay type: functional
[6] = MITF Measured in Cell-Based System Using Plate Reader - 2084-01_Inhibitor_Dose_DryPowder_Activity_Set7.; assay type: functional
[7] = molecular target: Metabotropic glutamate receptor 5 (Rattus norvegicus, UniProt P31424); experiment: Identification of a glycine sulfonamide based non-MPEP site positive allosteric potentiator (PAM) of mGlu5 (calcium_assay).; assay type: functional
[8] = C. neoformans growth inhibition with sorbitol, dose response, mechanism study for C. neoformans lysis project, alamar blue, dry powder, set 3 (AID 743304); assay type: functional, organism-based
cells [9] = conditions: HEK293
[10] = P. falciparum Dd2 blood-stage growth inhibition, dose response, SYBR Green fluorescence, erythrocytes, dry powder, set 2 (AID 1159574); assay type: functional, cell-based
[11] = THP-1 cell cytotoxicity, dose response, cytotoxicity control for Vif-APOBEC3G degradation inhibitor project, THP-1 cells (AID 1117359); assay type: functional; conditions: Human immunodeficiency virus 1, THP-1
[12] = molecular target: Glutathione-S-transferase (Schistosoma japonicum, UniProt Q26513); experiment: biotin-GST/anti-GST TR-FRET signal inhibitors, dose response, artefact control for Vif-APOBEC3G degradation inhibitor project, biochemical (AID 1117362); assay type: functional
[13] = molecular target: NAD-dependent protein deacylase sirtuin-5, mitochondrial (Homo sapiens, UniProt Q9NXA8); experiment: SIRT5 desuccinylase inhibitors, dose response, biochemical, fluorescence imaging, cherry-pick, set 5 (AID 720591);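 note: desuccinylation of succinyl peptide AMC substrate read as fluorescence after trypsin release; potency of inhibitors that lower fluorescence and may act on trypsin instead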
[14] = A Cell Based Secondary Assay To Explore Cytotoxicity of Compounds that Sensitize Mycobacterium Tuberculosis to Beta-Lactam Antibiotics.; assay type: functional
[15] = Vero cell cytotoxicity, dose response, cytotoxicity control for Vif-APOBEC3G degradation inhibitor project, Vero cells (AID 1117358); assay type: functional; conditions: Human immunodeficiency virus 1, Vero
[16] = microbe, parasite or virus in culture; assay type: functional; conditions: Mycobacterium tuberculosis
[17] = Luminescence Cell-Based Dose Retest to Confirm Inhibitors of Cancer Stem Cells. [Related pubchem assays (depositor defined):AID2717, AID2721]; assay type: functional; conditions: Homo sapiens
[18] = Concentration-dependent survival of SW480 colon cancer line, luminescence detection with CellTiter-Glo, half-maximal inhibitory concentration (AID 1117338); assay type: functional
[19] = RKO cell viability reduction, dose response, CellTiter-Glo luminescence (AID 1117322); assay type: functional
[20] = cytotoxicity toward HCT116 cells – cell-based, CellTiter-Glo luminescence, IC50, dose response (AID 1117332); assay type: functional; conditions: HCT-116
[21] = SNU-C1 cell viability reduction, dose response, CellTiter-Glo luminescence (AID 1117323); assay type: functional, cell-based
[22] = cytotoxicity toward Colo320 cells – cell-based, CellTiter-Glo luminescence, IC50, dose response (AID 1117334); assay type: functional; conditions: COLO 320
[23] = cytotoxicity toward HT-29 cells – cell-based, CellTiter-Glo luminescence, IC50, dose response (AID 1117330); assay type: functional
[24] = CellTiter-Glo luminescent dose response of DLD-1 viability loss (AID 1117352); assay type: functional
[25] = HCT116 cell viability decrease, GSK3B pretreatment – CellTiter-Glo, IC50, dose response (AID 1117339); assay type: functional; conditions: HCT-116
Phospholipase D2 [26] = molecular target: T1, Phospholipase D2 (Homo sapiens, UniProt O14939); experiment: PLD2 Cellular Concentration Response Study.; assay type: functional
Phospholipase D2 [27] = molecular target: T1, Phospholipase D2; experiment: Discovery of PLD2 inhibitors using the Purified Enzyme Concentration Response Assay.; assay type: functional
Phospholipase D1 [28] = molecular target: T2, Phospholipase D1 (Homo sapiens, UniProt Q13393); experiment: PLD1 Cellular Concentration Response Study.; assay type: functional
T2 sequence (Q13393 whole entry): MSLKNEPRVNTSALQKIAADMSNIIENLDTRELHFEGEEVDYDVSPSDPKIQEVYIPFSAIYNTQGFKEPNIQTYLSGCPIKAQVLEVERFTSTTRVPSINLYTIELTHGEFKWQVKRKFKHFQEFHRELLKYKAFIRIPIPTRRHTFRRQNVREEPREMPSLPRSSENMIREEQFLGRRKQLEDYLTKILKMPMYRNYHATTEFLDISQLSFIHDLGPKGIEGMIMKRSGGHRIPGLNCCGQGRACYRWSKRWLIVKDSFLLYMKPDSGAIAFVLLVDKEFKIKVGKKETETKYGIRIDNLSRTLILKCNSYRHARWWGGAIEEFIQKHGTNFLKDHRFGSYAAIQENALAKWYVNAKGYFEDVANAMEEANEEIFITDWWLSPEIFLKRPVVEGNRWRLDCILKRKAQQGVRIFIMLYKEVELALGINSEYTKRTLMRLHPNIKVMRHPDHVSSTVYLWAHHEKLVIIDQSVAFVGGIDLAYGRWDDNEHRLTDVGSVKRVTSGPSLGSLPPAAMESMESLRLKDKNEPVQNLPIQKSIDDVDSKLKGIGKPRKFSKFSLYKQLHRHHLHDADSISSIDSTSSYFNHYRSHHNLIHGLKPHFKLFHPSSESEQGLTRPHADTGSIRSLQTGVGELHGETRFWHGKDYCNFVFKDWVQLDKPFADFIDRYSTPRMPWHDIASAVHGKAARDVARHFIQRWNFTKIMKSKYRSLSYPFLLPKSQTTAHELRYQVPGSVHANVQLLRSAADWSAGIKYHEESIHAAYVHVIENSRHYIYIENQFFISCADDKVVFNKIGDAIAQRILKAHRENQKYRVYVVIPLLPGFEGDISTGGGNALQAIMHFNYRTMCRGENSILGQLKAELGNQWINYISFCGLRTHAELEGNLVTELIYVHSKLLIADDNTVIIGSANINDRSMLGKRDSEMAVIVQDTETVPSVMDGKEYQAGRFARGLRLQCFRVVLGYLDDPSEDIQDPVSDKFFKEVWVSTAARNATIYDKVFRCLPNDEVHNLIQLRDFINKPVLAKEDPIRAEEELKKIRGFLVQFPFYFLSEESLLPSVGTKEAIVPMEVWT

Phospholipase D1 [29] = molecular target: T2, Phospholipase D1; experiment: purified PLD1 inhibitor potency, IC50, confirmation, biochemical, concentration response (AID 743390); assay type: functional
[30] = molecular target: T3, Heat shock factor protein 1 (Mus musculus, UniProt P38532); experiment: HSF1 potentiators in luciferase reporter cells, confirmation, cell-based, NIH3T3, luminescence, dose retest (AID 435004); assay type: functional;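 note: stress induced by proteasome inhibitor MG132 added 30 min after compound; luciferase reporter driven by HSF1 response element in NIH3T3 cells; actives raise luminescence as potentiators of the MG132 stress response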
T3 sequence (P38532 whole entry): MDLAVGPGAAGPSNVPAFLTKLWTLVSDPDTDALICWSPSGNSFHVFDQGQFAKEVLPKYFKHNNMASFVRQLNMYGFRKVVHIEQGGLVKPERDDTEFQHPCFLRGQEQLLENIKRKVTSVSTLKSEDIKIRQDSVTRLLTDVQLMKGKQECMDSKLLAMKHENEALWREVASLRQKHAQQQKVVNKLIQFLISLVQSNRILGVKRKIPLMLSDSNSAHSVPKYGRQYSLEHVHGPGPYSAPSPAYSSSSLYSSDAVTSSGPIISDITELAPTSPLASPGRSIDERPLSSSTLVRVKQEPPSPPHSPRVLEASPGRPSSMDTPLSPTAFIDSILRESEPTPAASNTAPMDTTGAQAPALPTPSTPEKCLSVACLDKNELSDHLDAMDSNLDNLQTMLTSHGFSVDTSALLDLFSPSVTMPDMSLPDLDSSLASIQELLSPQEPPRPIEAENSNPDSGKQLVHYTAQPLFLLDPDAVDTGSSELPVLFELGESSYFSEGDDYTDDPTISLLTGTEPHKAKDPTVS

[31] = HepG2 cell cytotoxicity, dose response, cytotoxicity control, ATP luminescence, cherry-pick, set 6 (AID 1053125); assay type: functional, cell-based
cells [32] = conditions: A549
cells [33] = experiment: cells
[34] = molecular target: Solute carrier family 12 member 2/member 5 (Homo sapiens, UniProt P55011+Q9H2X9); experiment: KCC2 and NKCC1 inhibition by rubidium flux, cell-based, NKCC1 counter-screen (AID 1734); assay type: functional, HEK293
[35] = endogenous miR-122 level reduction, dose response, orthogonal assay for miR-122 inhibitor project, cell-based, Huh7, RT-qPCR, dry powder (AID 687041); assay type: functional
[36] = HEK293T cytotoxicity, dose response, cytotoxicity control for miR-122 modulator project, cell-based, activator set, cherry-pick (AID 720690); assay type: functional;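 note: HEK293T human cells scored for general mammalian cytotoxicity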
[37] = HEK293 cell cytotoxicity, dose response, cytotoxicity control, cherry-picks, set 5 (AID 1053117); assay type: functional, cell-based
[38] = fibronectin fibrillogenesis inhibitors in fibroblasts, dose response, AH1F cells, Alexa488-fibronectin fluorescence, cherry-pick, set 2 (AID 1117283); assay type: functional, cell-based

T1 sequence (O14939 whole entry): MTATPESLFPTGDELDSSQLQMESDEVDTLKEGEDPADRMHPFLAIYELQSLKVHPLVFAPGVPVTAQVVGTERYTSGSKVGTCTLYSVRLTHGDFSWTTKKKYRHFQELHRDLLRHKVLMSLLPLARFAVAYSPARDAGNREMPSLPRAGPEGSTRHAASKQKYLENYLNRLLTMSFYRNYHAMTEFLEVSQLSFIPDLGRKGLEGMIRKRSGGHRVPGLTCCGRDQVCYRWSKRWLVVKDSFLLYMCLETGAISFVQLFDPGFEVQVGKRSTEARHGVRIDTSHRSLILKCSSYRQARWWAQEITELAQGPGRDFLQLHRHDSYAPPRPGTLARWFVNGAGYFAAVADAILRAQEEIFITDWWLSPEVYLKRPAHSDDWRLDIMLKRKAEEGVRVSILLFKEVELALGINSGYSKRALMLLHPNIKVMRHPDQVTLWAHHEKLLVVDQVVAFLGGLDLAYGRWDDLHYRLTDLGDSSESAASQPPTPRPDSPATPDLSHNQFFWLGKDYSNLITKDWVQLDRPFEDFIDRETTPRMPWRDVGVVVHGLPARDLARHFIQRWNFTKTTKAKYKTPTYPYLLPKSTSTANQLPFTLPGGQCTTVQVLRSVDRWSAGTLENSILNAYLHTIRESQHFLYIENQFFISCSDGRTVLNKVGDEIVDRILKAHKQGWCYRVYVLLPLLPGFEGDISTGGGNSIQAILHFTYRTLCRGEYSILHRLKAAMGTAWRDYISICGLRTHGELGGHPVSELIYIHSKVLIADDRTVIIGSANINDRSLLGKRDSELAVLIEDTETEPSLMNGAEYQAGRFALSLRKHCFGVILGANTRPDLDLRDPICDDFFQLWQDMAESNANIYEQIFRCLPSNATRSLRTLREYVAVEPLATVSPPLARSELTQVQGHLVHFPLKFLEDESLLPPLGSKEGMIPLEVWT
Glutathione-S-transferase, sequence (Q26513 whole entry): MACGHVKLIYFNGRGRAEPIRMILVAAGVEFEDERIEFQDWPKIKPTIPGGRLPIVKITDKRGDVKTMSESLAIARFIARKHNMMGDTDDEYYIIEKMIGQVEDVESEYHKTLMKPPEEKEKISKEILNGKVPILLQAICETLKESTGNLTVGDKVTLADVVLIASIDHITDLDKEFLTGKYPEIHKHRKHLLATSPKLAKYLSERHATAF
Metabotropic glutamate receptor 5, sequence (P31424 whole entry): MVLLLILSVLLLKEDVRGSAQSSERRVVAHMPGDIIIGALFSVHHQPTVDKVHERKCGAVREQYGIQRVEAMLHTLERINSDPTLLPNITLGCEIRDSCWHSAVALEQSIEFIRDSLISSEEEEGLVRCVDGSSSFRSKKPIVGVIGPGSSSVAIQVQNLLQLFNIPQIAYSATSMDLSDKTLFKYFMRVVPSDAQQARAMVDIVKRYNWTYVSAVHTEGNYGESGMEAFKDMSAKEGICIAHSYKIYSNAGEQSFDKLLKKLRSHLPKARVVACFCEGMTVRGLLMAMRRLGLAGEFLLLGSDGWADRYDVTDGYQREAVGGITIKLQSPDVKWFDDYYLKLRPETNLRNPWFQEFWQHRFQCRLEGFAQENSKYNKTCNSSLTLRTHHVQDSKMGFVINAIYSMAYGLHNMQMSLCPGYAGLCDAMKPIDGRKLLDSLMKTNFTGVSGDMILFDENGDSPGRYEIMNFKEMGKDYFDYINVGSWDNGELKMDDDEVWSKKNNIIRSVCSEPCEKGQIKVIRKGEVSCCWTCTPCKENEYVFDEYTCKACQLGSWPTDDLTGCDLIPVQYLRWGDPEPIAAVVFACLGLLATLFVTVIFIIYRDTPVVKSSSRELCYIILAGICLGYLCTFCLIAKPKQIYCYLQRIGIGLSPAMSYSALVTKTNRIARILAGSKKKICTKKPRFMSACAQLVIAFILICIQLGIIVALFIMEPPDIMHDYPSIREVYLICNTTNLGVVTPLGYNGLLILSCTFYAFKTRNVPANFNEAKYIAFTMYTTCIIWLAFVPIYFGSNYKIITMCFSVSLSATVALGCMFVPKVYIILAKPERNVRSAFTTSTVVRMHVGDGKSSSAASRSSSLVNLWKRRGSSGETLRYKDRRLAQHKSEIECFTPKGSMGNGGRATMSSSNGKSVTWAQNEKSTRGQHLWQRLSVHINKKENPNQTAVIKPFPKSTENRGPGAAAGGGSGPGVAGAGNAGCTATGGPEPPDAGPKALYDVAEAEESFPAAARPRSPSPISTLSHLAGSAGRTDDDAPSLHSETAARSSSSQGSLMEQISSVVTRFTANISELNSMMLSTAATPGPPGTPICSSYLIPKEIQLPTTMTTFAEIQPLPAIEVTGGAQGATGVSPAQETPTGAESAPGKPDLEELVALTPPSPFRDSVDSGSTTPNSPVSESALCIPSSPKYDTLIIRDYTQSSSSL
NAD-dependent protein deacylase sirtuin-5, mitochondrial, sequence (Q9NXA8 whole entry): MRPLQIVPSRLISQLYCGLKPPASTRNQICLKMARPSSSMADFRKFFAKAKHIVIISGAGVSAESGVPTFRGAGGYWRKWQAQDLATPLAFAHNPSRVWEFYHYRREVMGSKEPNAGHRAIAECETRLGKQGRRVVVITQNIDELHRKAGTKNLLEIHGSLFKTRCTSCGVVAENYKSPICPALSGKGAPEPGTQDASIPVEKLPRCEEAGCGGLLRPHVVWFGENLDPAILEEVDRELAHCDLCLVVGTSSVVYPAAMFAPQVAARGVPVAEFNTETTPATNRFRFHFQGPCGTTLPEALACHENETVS

In the case of `O=C(Nc1c2c(nn1-c1ccc(F)cc1)C[S+]([O-])C2)C12CC3CC(CC(C3)C1)C2` (stereo not drawn), the IC50 [1] is reported as > 100 µM (active).

In the case of `CNC1=CC(=O)c2ccccc2C1=O`, the AC50 [2] is reported as > 70 µM (inactive), the AC50 [3] is reported as 62.6 µM (active) and the AC50 [4] is reported as 52.9 µM (active). For the same compound, the AC50 [5] was 11.3 µM (active) and the AC50 [6] was 17.2 µM (active).

With `CS(=O)(=O)N(CC(=O)N1CCc2ccccc21)c1cc(C(F)(F)F)ccc1Cl` the EC50 [7] was 10 µM (inconclusive).

For `COCc1nc2ccccc2n1CCOc1ccc(C(C)(C)C)cc1`, the AC50 [8] was 52.3 µM (active) and the AC50 (cells [9]) was 34 µM (active).

For `O=C(c1ccccc1F)N1CC(=O)N2[C@H](CO)[C@H](c3ccc(-c4cccnc4)cc3)[C@@H]2C1`, the AC50 [10] was > 39 µM (inactive).

For `COc1ccc2c(c1)O[C@@H](c1ccc3c(c1)OCO3)[C@H](OC(=O)Nc1cc(OC)c(OC)c(OC)c1)C2=O`, the CC50 [11] was 6.65 µM (active) and the IC50 [12] was > 100 µM (active).

For `CCC(C)(C)NC(=O)C(c1ccc(F)cc1)N(Cc1ccco1)C(=O)CCC(=O)Nc1ccccn1` (stereo not drawn), the AC50 [13] was > 30 µM (inactive).

In the case of `O=C(NNC(=O)c1cc(OCC(F)(F)F)ccc1OCC(F)(F)F)c1cccc(C(F)(F)F)c1`, the CC50 [14] is reported as > 40 µM (active) and the CC50 [15] is reported as > 40 µM (active).

In the case of `CC1=C(/C=C/C(C)=C/C=C/C(C)=C/C(=O)Nc2ccc(O)cc2)C(C)(C)CCC1` [FENRETINIDE], the CC50 [16] is reported as 14.4 µM (active), the AC50 [17] is reported as 1.04 µM (active) and the IC50 [18] is reported as 4.85 µM (active). The IC50 [19] was 1.72 µM (active), the IC50 [20] was 5.3 µM (inactive) and the IC50 [21] was 6.69 µM (inactive). The IC50 [22] was 3.24 µM (active), the IC50 [23] was 2.12 µM (active) and the IC50 [24] was 9.49 µM (inactive). The IC50 [25] was 4.95 µM (active).

In the case of `O=C(NCCN1CCC2(CC1)C(=O)NCN2Cc1cccnc1)c1cc2ccccc2[nH]1`, the IC50 (Phospholipase D2 [26]) is reported as 0.05 µM (active), the IC50 (Phospholipase D2 [27]) is reported as 0.94 µM (active) and the IC50 (Phospholipase D1 [28]) is reported as 3.59 µM (active). For the same compound, the IC50 (Phospholipase D1 [29]) was 20 µM (active).

For `COc1ccc(C2C3=C(CCCC3=O)N(CC(=O)O)C3=C2C(=O)CCC3)cc1Cl`, the EC50 [30] was > 260 µM (inactive), the AC50 [31] was > 52 µM (inactive) and the AC50 (cells [32]) was > 52 µM (inactive). For the same compound, the AC50 (cells [33]) was 2.66 µM (active).

In the case of `O=C(/C=C/c1ccccc1)Nc1scc(-c2ccccc2)c1C(=O)O`, the IC50 [34] is reported as 7.9 µM (active).

For `Cc1ccc(S(=O)(=O)Nc2ccc3c4c(cccc24)CC3)c(C)c1`, the AC50 [35] was 0.567 µM (active).

With `CO[C@H]1CN(C)C(=O)c2cc(NC(=O)Nc3cc(Cl)cc(Cl)c3)ccc2OC[C@H](C)NC[C@@H]1C` the AC50 [36] was 16.9 µM (active), the AC50 [37] was > 52 µM (inactive) and the AC50 [38] was > 70 µM (inactive).
